Where “and” joins values, the source holds several entries; their conditions need not be identical. Equal values may be shown once.

By viability, T/C is commonly meant the ratio of treated to control. In general, IC50 refers to the point on the concentration scale where inhibition reaches its midpoint.

The subject of this assay is 521955-158-R2-J5-PDC spheroids with stroma, growth inhibition. The assay is described as follows: Anticancer human tumor 521955-158-R2-J5-PDC patient-derived pancreatic carcinoma cell line growth inhibition [TAK]. The conditions noted are these: for viability, T/C: stronger effect = lower value. The text has this: Combinatorial screen of targeted agents with TAK-243 and ipatasertib in multi-cell type tumor spheroids
A high-throughput screen of multi-cell type tumor spheroids was designed to identify active combinations of targeted small molecules and TAK-243 or ipatasertib. Complex spheroids include a stromal component modeled by human endothelial cells (HUVEC) and fibroblasts modeled by human mesenchymal stem cells (MSCs). The concentration ranges selected for each drug and investigational agent were based upon clinically achievable concentrations if the clinical Cmax of the agent was known.
Compounds. The drugs and investigational agents: TAK-243 (785004), ipatasertib (767898), everolimus (733504), selumetinib (741078), bortezomib (756655), trametinib (758246), ixazomib (758254), vemurafenib (761431), dabrafenib (764134), sapanisertib (764658), alpelisib (765974), and copanlisib (816437), were obtained from the National Cancer Institute (NCI) Developmental Therapeutics Program Chemical Repository. The FDA-approved anticancer drug set is available from the NCI Developmental Therapeutics Program. […] The stock solutions were prepared in dimethyl sulfoxide (DMSO, Sigma-Aldrich, St. Louis, MO, cat. D2650) at 800-fold the tested concentration and stored at -70 degrees C prior to their use. All drugs and investigational agents were tested over a range starting from a high concentration at or near the clinical Cmax and decreasing in half-log increments. If the clinical Cmax for an agent had not been determined, the highest concentration tested was 10 microM.
NCI60 Cell Culture. NCI60 cell lines were obtained from the NCI Developmental Therapeutics Program Tumor Repository. For each lot of cells, the Repository performed Applied Biosystems AmpFLSTR Identifiler testing with PCR amplification to confirm consistency with the published Identifier STR profile for each cell line. Cells were kept in continuous culture for no more than 20 passages. The optimal seeding densities for each of the cell lines at each time point assessed were determined prior to performing the concentration response studies. Briefly, the NCI60 human tumor lines were grown as monolayers in RPMI 1640 medium supplemented with 10% FBS and 2 mmol/L L-glutamine.
An additional 2 lines were from the NCI60 cell line panel including melanomas, MALME-3M and SK-MEL-2. Pooled donor human umbilical vein endothelial cells (HUVEC, Lonza, cat. CC-2519) and human mesenchymal stem cells (hMSC, Lonza, cat. PT-2501) were purchased from Lonza (Walkersville, MD).
PDMR cell lines were grown in complete medium (DC medium): Dulbecco's modified Eagle's medium (DMEM)/F12 supplemented with 5% fetal bovine serum (FBS), 2 mM L-glutamine, 100 U/mL penicillin and 100 µg/ml streptomycin, 0.4 µg/ml hydrocortisone, 10 ng/ml epidermal growth factor (EGF) recombinant human protein, 24 µg/mL adenine, and 0.1 mg/mL primocin. During culture from frozen stock vials, PDMR cells were cultured in the same medium containing 10 µM Y-27632 (see Table 3). The PDCs were cultured in complete DMEM/F12 media without 10 microM Y-27632 dihydrochloride for at least two passages prior to the screen. The pooled donor HUVEC and hMSC were cultured in endothelial cell growth medium 2 (PromoCell, Heidelberg, Germany, cat. C-22011) and mesenchymal stem cell growth medium 2 (PromoCell, cat. C-28009), respectively. For all experiments, HUVEC and hMSC were used at passages </=5.
For the pre-screen, cell seeding densities were determined from a titration spanning the range from 5,000 to 313 cells per well. The mct-spheroids including 60% malignant cells, 25% HUVEC and 15% MSC dispensed as a mixture into U-bottom Ultra-Low Attachment 384-well plates (Corning, NY)
High-throughput Drug Combination Screening.
Prior to their inoculation into 384-well plates, malignant cells, HUVEC, and hMSC were removed from T flasks using TrypLE express (Thermo Fisher Scientific, cat. 12605036) and harvested by centrifugation for 5 min at 233 x g. […]
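Note: spheroids exposed to drugs for seven days before readout.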

Take `CC(=O)Nc1cccc(-n2c(=O)n(C3CC3)c(=O)c3c(Nc4ccc(I)cc4F)n(C)c(=O)c(C)c32)c1`: the viability, T/C reads like this: (compound 94.9 pM) 104% and 87%; (compound 0.0003 µM) 79.1% and 65.4%; (compound 0.000949 µM) 52% and 51.3%; (compound 0.003 µM) 48.2% and 48.1%; (compound 0.00949 µM) 38.6% and 39.5%; (compound 0.03 µM) 27.5% and 24.4%. The IC50 (curve of compound) was 1.87 nM and 1.69 nM.

For `CC(C)(C)c1nc(-c2cccc(NS(=O)(=O)c3c(F)cccc3F)c2F)c(-c2ccnc(N)n2)s1`, the viability, T/C (compound 0.0316 µM) was 102% and 112%; the viability, T/C (compound 0.1 µM) is 112% and 117%; the viability, T/C (compound 0.316 µM) is 140% and 170%; the viability, T/C (compound 1 µM) was 160% and 186%; the viability, T/C (compound 3.16 µM) was 114% and 125%; the viability, T/C (compound 10 µM) is 88.9% and 92.2%. Under “curve of compound”, the IC50 is over 10000 nM.

On to `CC(C)CC(NC(=O)C(Cc1ccccc1)NC(=O)c1cnccn1)B(O)O` (stereo not given), for which the viability, T/C is 94.9% and 116% (compound 31.6 pM); 90.7% and 91.3% (compound 0.0001 µM); 91.3% and 92.2% (compound 0.000316 µM); 95.1% and 117% (compound 0.001 µM); 105% and 99.9% (compound 0.00316 µM); 12.7% and 7.91% (compound 0.01 µM). Moreover, the IC50 (curve of compound) is 5.96 nM and 6.03 nM.

As for `CC(C)CC(NC(=O)CNC(=O)c1cc(Cl)ccc1Cl)B1OC(=O)CC(CC(=O)O)(C(=O)O)O1` (stereo not given), the viability, T/C is 102% and 105% (compound 0.000316 µM); 111% and 93.8% (compound 0.001 µM); 96.3% and 92% (compound 0.00316 µM); 93.5% and 92.7% (compound 0.01 µM); 80.1% and 72.8% (compound 0.0316 µM); 10% and 7.07% (compound 0.1 µM). For the setting “curve of compound”, the IC50 was 50.8 nM and 47 nM.

As for `CC(C)NCC(C(=O)N1CCN(c2ncnc3c2C(C)CC3O)CC1)c1ccc(Cl)cc1` (stereo not given), the viability, T/C was 101% [middle of 10 runs] (compound 0.3 µM), 81.5% [middle of 10 runs] (compound 0.949 µM), 82.7% [middle of 10 runs] (compound 3 µM) and 56.5% [middle of 10 runs] (compound 30 µM). Besides, the IC50 (compound alone, run of 02/20/2020) was over 30000 nM.

As to `CC(C)n1nc(-c2ccc3oc(N)nc3c2)c2c(N)ncnc21`, the viability, T/C is, setting by setting: (compound 0.000316 µM) 107% and 99.8%; (compound 0.001 µM) 89.1% and 102%; (compound 0.00316 µM) 80.7% and 95.7%; (compound 0.01 µM) 79.8% and 95.6%; (compound 0.0316 µM) 51.6% and 63.9%; (compound 0.1 µM) 39% and 41.8%. Besides, the concentration for half-maximal inhibition (IC50) (curve of compound) was 47.2 nM and 65.2 nM.

As for `CCCS(=O)(=O)Nc1ccc(F)c(C(=O)c2c[nH]c3ncc(-c4ccc(Cl)cc4)cc23)c1F`, the viability, T/C reads like this: (compound 0.316 µM) 77.5% and 89.5%; (compound 1 µM) 89% and 87.9%; (compound 3.16 µM) 132% and 116%; (compound 10 µM) 149% and 164%; (compound 31.6 µM) 165% and 24.2%; (compound 100 µM) 187% and 232%. Also, the IC50 (curve of compound) is over 100000 nM.

On to `COC1CC2CCC(C)C(O)(O2)C(=O)C(=O)N2CCCCC2C(=O)OC(C(C)CC2CCC(OCCO)C(OC)C2)CC(=O)C(C)C=C(C)C(O)C(OC)C(=O)C(C)CC(C)C=CC=CC=C1C` (stereo not given), for which the viability, T/C (compound 0.000316 µM) was 102% and 111%; the viability, T/C (compound 0.001 µM) is 105% and 97.8%; the viability, T/C (compound 0.00316 µM) was 90.8% and 91.6%; the viability, T/C (compound 0.01 µM) is 93.4% and 91.1%; the viability, T/C (compound 0.0316 µM) was 86.8% and 89.5%; the viability, T/C (compound 0.1 µM) is 73.8% and 66.2%. In addition, under “curve of compound”, the IC50 was over 100 nM.

For the compound `COc1c(OCCCN2CCOCC2)ccc2c3n(c(=NC(=O)c4cnc(N)nc4)nc12)CCN3`, the viability, T/C is 96.6% and 79.7% (compound 0.00316 µM); 71.7% and 68.7% (compound 0.01 µM); 48.8% and 53.6% (compound 0.0316 µM); 29.3% (compound 0.1 µM); 9.38% and 8.89% (compound 0.316 µM); 8.06% and 7.65% (compound 1 µM). For the same compound, the IC50 (curve of compound) is 28.8 nM and 36.1 nM.

On to `Cc1nc(NC(=O)N2CCCC2C(N)=O)sc1-c1ccnc(C(C)(C)C(F)(F)F)c1` (stereo not given), for which the viability, T/C is 90.1% and 88.9% (compound 0.0316 µM); 88.6% and 71.4% (compound 0.1 µM); 77.4% and 65.2% (compound 0.316 µM); 62.1% and 51.6% (compound 1 µM); 49.1% and 47.6% (compound 3.16 µM); 35.7% and 40.8% (compound 10 µM). The IC50 (curve of compound) is 2680 nM and 1740 nM.

As for `Cn1cnc2c(F)c(Nc3ccc(Br)cc3Cl)c(C(=O)NOCCO)cc21`, the viability, T/C (compound 0.00949 µM) was 77.5% and 65.7%; the viability, T/C (compound 0.03 µM) was 49.3% and 60.3%; the viability, T/C (compound 0.0949 µM) was 45.1% and 51.2%; the viability, T/C (compound 0.3 µM) was 42.5% and 42.8%; the viability, T/C (compound 0.949 µM) was 40.2% and 36%; the viability, T/C (compound 3 µM) is 34% and 28.5%. Besides, the IC50 (curve of compound) was 38.2 nM and 117 nM.
